# Experimental data reported in publication PMC5804415, “Comparison of ^68Ga-DOTA-Siglec-9 and ^18F-Fluorodeoxyribose-Siglec-9: Inflammation Imaging and Radiation Dosimetry” (Contrast Media & Molecular Imaging, 2017).
# Positions of bridges follow the written chain, without caps; N, C: chain ends. Residues, ends and D or L forms follow the SMILES beside them. *: point of attachment. DOTA = O=C(O)CN1CCN(CC(=O)O)CCN(CC(=O)*)CCN(CC(=O)O)CC1; AEEA = NCCOCCOCC(=O)O
# Assays:
# [1] = system: rats with skin/muscle inflammation (turpentine oil); type: in vivo, rat; details: rat, in vivo, iv
# Procedure: Rats were divided into two groups with Group 1 being intravenously (i.v.) given ^68Ga-DOTA-Siglec-9 (16 ± 2.9 MBq, n = 8) and Group 2 ^18F-FDR-Siglec-9 (18 ± 5.1 MBq, n = 8). A 60 min dynamic PET acquisition was performed on a High Resolution Research Tomograph (HRRT; Siemens Medical Solutions, Knoxville, TN, USA). The PET data were reconstructed into 5 × 60 s and 11 × 300 s frames using an ordered-subsets expectation maximization 3D algorithm (OSEM3D). Quantitative PET image analysis was performed by defining regions of interest (ROIs) within the inflamed area (on the left foreleg), control area (on the right foreleg), kidneys, lungs, heart, liver, and urinary bladder using […] 2.8 software (Turku PET Centre). Results were expressed as standardized uptake values (SUV) and time-activity curves. SUV was calculated as a ratio of tissue radioactivity concentration (Bq/mL) and given radioactivity dose (Bq) divided by animal's body weight.
# [2] = SD
# Procedure: Absorbed doses of ^68Ga-DOTA-Siglec-9 and ^18F-FDR-Siglec-9 were calculated with the OLINDA/EXM version 1.0 software (organ level internal dose assessment and exponential modeling; Vanderbilt University, Nashville, TN, USA), which applies the MIRD schema (developed by the Medical Internal Radiation Dose committee of the Society of Nuclear Medicine) for radiation dose calculations in internal exposure. The software includes radionuclide information and selection of human body phantoms. The residence times derived from the rat data were integrated as the area under the time-activity curve. The residence times were converted into corresponding human values by multiplication with a factor to scale the organ and body weights: (WBody,rat/WOrgan,rat)×(WOrgan,human/WBody,human), where WBody,rat and WBody,human are the body weights of rat and human (a 70-kg male), respectively; and WOrgan,rat and WOrgan,human are the organ weights of rat and human (organ weights for a 70 kg male), respectively [14].
# [3] = system: LDLR^−/−ApoB^100/100 atherosclerotic mice; design: method as in PMID 27731409; details: mouse, in vivo; cited from earlier work
# in vivo = details: Sprague-Dawley, rat, iv, total radioactivity, Ex vivo biodistribution, SD
# Excerpt: Twenty-four hours before the PET studies, Sprague-Dawley rats (weight, 350 ± 22 g; n = 16) were subcutaneously injected with turpentine oil (Sigma-Aldrich) to induce focal acute, sterile inflammation [12]. Before the injection, rats were shaved on the both forelegs. Inflamed area on the left foreleg contained both skin and muscle. The intact, contralateral side (right foreleg) was used as a control.
# After PET imaging, rats were sacrificed and various tissues were excised and weighed, and their radioactivity levels were measured with a gamma counter (1480 Wizard 3′′, PerkinElmer, Turku, Finland). The ex vivo biodistribution results were expressed as a percentage of the injected radioactivity dose per gram of tissue (% ID/g) and target-to-background ratio.
smiles,measurement,setting,value
"CC(C)C[C@@H]1NC(=O)CNC(=O)[C@H](CCCNC(=N)N)NC(=O)[C@H](Cc2c[nH]c3ccccc23)NC(=O)[C@H](CO)NC(=O)[C@H](CC(C)C)NC(=O)[C@H](CO)NC(=O)[C@H](CC(C)C)NC(=O)[C@H](CCCNC(=N)N)NC(=O)[C@H](C)NC(=O)[C@@H](NC(=O)COCCOCCNC(=O)CN2CCN(CC(=O)O)CCN(CC(=O)O)CCN(CC(=O)O)CC2)CSSC[C@@H](C(=O)N2CCC[C@H]2C(=O)N[C@@H](CO)C(=O)N[C@@H](CCCCN)C(=O)O)NC(=O)[C@H](CC(C)C)NC(=O)[C@H]([C@@H](C)O)NC1=O [^68Ga-DOTA-Siglec-9, metal not drawn] ({DOTA-AEEA}-CARLSLSWRGLTLCPSK-OH; disulfide 1-14)",time of peak uptake in the inflamed area after the i.v. bolus injection,[1],about 10 min
same,"Human dose equivalent estimate, Adrenals",[2],0.014 ± 0.0012 mSv/MBq
same,"Human dose equivalent estimate, Brain",[2],0.012 ± 0.00077 mSv/MBq
same,"Human dose equivalent estimate, Breasts",[2],0.011 ± 0.00064 mSv/MBq
same,"Human dose equivalent estimate, Gallbladder wall",[2],0.014 ± 0.00065 mSv/MBq
same,"Human dose equivalent estimate, Heart wall",[2],0.0083 ± 0.0010 mSv/MBq
same,"Human dose equivalent estimate, Kidneys",[2],0.15 ± 0.12 mSv/MBq
same,"Human dose equivalent estimate, Liver",[2],0.012 ± 0.0024 mSv/MBq
same,"Human dose equivalent estimate, Lower large intestine wall",[2],0.015 ± 0.00077 mSv/MBq
same,"Human dose equivalent estimate, Lungs",[2],0.0044 ± 0.00054 mSv/MBq
same,"Human dose equivalent estimate, Muscle",[2],0.0050 ± 0.00018 mSv/MBq
same,"Human dose equivalent estimate, Osteogenic cells",[2],0.017 ± 0.00094 mSv/MBq
same,"Human dose equivalent estimate, Ovaries",[2],0.015 ± 0.00064 mSv/MBq
same,"Human dose equivalent estimate, Pancreas",[2],0.014 ± 0.00085 mSv/MBq
same,"Human dose equivalent estimate, Red marrow",[2],0.010 ± 0.00037 mSv/MBq
same,"Human dose equivalent estimate, Skin",[2],0.010 ± 0.00054 mSv/MBq
same,"Human dose equivalent estimate, Small intestine",[2],0.014 ± 0.00047 mSv/MBq
same,"Human dose equivalent estimate, Spleen",[2],0.014 ± 0.0011 mSv/MBq
same,"Human dose equivalent estimate, Stomach wall",[2],0.013 ± 0.00065 mSv/MBq
same,"Human dose equivalent estimate, Testes",[2],0.013 ± 0.00062 mSv/MBq
same,"Human dose equivalent estimate, Thymus",[2],0.011 ± 0.00068 mSv/MBq
same,"Human dose equivalent estimate, Thyroid",[2],0.011 ± 0.00072 mSv/MBq
same,"Human dose equivalent estimate, Total body",[2],0.013 ± 0.00041 mSv/MBq
same,"Human dose equivalent estimate, Upper large intestine wall",[2],0.014 ± 0.00046 mSv/MBq
same,"Human dose equivalent estimate, Urinary bladder wall",[2],0.20 ± 0.087 mSv/MBq
same,"Human dose equivalent estimate, Uterus",[2],0.018 ± 0.0017 mSv/MBq
same,Human effective dose estimate,[2],0.024 ± 0.0041 mSv/MBq
same,"Normalized number of disintegrations, Heart wall",[2],0.0029 ± 0.00072 h
same,"Normalized number of disintegrations, Kidneys",[2],0.093 ± 0.081 h
same,"Normalized number of disintegrations, Liver",[2],0.033 ± 0.0097 h
same,"Normalized number of disintegrations, Lungs",[2],0.0026 ± 0.0011 h
same,"Normalized number of disintegrations, Muscle",[2],0.054 ± 0.0088 h
same,"Normalized number of disintegrations, Total body",[2],1.3 ± 0.085 h
same,"Normalized number of disintegrations, Urinary bladder wall",[2],0.17 ± 0.076 h
same,"aortic uptake, previously reported",[3],0.83 ± 0.33 % ID/g
same,tissue uptake at 1 h,"in vivo; Adipose tissue, BAT",0.024 ± 0.026 %ID/g
same,tissue uptake at 1 h,"in vivo; Adipose tissue, WAT",0.027 ± 0.014 %ID/g
same,tissue uptake at 1 h,in vivo; Blood,0.099 ± 0.04 %ID/g
same,tissue uptake at 1 h,in vivo; Bone (femoral),0.02 ± 0.0089 %ID/g
same,tissue uptake at 1 h,in vivo; Bone marrow,0.039 ± 0.012 %ID/g
same,tissue uptake at 1 h,in vivo; Brain,0.0062 ± 0.0049 %ID/g
same,tissue uptake at 1 h,in vivo; Control area,0.051 ± 0.0063 %ID/g
same,tissue uptake at 1 h,in vivo; Heart,0.03 ± 0.011 %ID/g
same,tissue uptake at 1 h,in vivo; Inflamed area,0.12 ± 0.032 %ID/g
same,tissue uptake at 1 h,in vivo; Kidneys,2.8 ± 1.8 %ID/g
same,tissue uptake at 1 h,in vivo; Liver,0.32 ± 0.16 %ID/g
same,tissue uptake at 1 h,in vivo; Lungs,0.079 ± 0.035 %ID/g
same,tissue uptake at 1 h,in vivo; Muscle,0.019 ± 0.0091 %ID/g
same,tissue uptake at 1 h,in vivo; Pancreas,0.024 ± 0.0024 %ID/g
same,tissue uptake at 1 h,in vivo; Plasma,0.13 ± 0.015 %ID/g
same,tissue uptake at 1 h,in vivo; Small intestine,0.06 ± 0.016 %ID/g
same,tissue uptake at 1 h,in vivo; Spleen,0.19 ± 0.11 %ID/g
same,tissue uptake at 1 h,"in vivo; male, Testis",0.035 ± 0.031 %ID/g
